Marks after values point to notes of the source that are not given here.
How the values were obtained:
Mouse Melanoma B16F10 = assay: Effectiveness on blood-mediated metastasis in mice of mouse melanoma B16F10 (lung metastasized nodes); assay type: in vivo, C57/BL6 mice; conditions: for Number of Metastasized Nodes (mean ± standard error): simultaneously with 10^6 cells/mouse in tail vein, lung surface nodes counted after 14 days; for Metastasis Inhibition Rate (%): versus control group, p< 0.001
Protocol: [Effectiveness on Blood-mediated Metastasis in Mice of Mouse Melanoma B16F10]
Liquid-cultured mouse melanoma cells were transplanted in tail veins of C57/BL6 mice (6 weeks old, male) in an amount of 10^6 cells/mouse. Simultaneously, beraprost sodium salt was administered intravenously at a dose of 0.03 mg/kg, 0.1 mg/kg or 0.3 mg/kg. To a control group, phosphate buffer saline was administered. Fourteen days after the administration, mice were sacrificed and the lung was removed from each mouse. From the trachea communicating to the lung, 10% neutral buffered formalin solution was poured to inflate the lung, and the lung was immersed in 10% neutral buffered formalin solution to fix the lung. Several days later, each lung was divided and the number of the metastasized nodes on the surface of each leaf was counted with a stereoscopic microscope.
The statistical analysis of this example was carried out according to the student's t-test.

Acute toxicity test = assay type: in vivo, rats; conditions: for LD50: 14 days observation, 95% reliable limit in parentheses, Litchfield-Wilcoxon Method
Protocol: Acute toxicity test was carried out using rats.
The numbers in parentheses indicate 95% reliable limit.

CC#CCC(C)[C@H](O)/C=C/[C@@H]1[C@H]2c3cccc(CCCC(=O)O)c3O[C@H]2C[C@H]1O (mixture of isomers) [Beraprost, (±)-(1R*, 2R*, 3aS*, 8bS*)-2,3,3a,8b-tetrahydro-2-hydroxy-1-[(E)-(3S*)-3-hydroxy-4-methyl-1-octene-6-inyl]-1H-cyclopenta[b]benzofuran-5-butyric acid]
Number of Metastasized Nodes (mean ± standard error) (Mouse Melanoma B16F10; 0.03 mg/kg intravenously): 204 ± 24 | Metastasis Inhibition Rate (%) (Mouse Melanoma B16F10; 0.03 mg/kg intravenously): 48*** % | Number of Metastasized Nodes (mean ± standard error) (Mouse Melanoma B16F10; 0.1 mg/kg intravenously): 160 ± 28 | Metastasis Inhibition Rate (%) (Mouse Melanoma B16F10; 0.1 mg/kg intravenously): 52*** % | Number of Metastasized Nodes (mean ± standard error) (Mouse Melanoma B16F10; 0.3 mg/kg intravenously): 167 ± 21 | Metastasis Inhibition Rate (%) (Mouse Melanoma B16F10; 0.3 mg/kg intravenously): 49*** % | maximum inhibition rate of metastasis of B16F10 to mouse lungs (Mouse Melanoma B16F10; maximum over doses 0.03-0.3 mg/kg intravenously): 52% | LD50 (Acute toxicity test; Intravenous, Female): 13 (10-16) mg/kg | LD50 (Acute toxicity test; Intravenous, Male): 18 (15-22) mg/kg | LD50 (Acute toxicity test; Oral, Female): 12 (9-15) mg/kg | LD50 (Acute toxicity test; Oral, Male): 15 (13-19) mg/kg | LD50 (Acute toxicity test; Subcutaneous, Female): 7 ( 6- 9) mg/kg | LD50 (Acute toxicity test; Subcutaneous, Male): 13 (12-14) mg/kg | pathological observation, main findings (Acute toxicity test; animals that were killed, common to male and female and to all administration routes): slight to medium congestion in lung, slight to medium bleeding in glandular stomach and slight small intestine catarrh

Reference: patent publication EP0623346B1, “INHIBITOR FOR METASTASIS OF MALIGNANT TUMOR” (TORAY INDUSTRIES, INC., priority 1992, dated 1994)
